Reference: patent US8354414B2, “Substituted bicyclic pyrimidines” (Cephalon, Inc, priority 2006, dated 2013)
pIC50: −log10 of the molar value.

Tests used:
[1] = target: T1, CDK5/GST-p25 (Homo sapiens, UniProt Q00535); test: Inhibition of CDK5/GST-p25 kinase activity (ELISA with time-resolved fluorescence readout); type: biochemical
T1 construct: The final construct, encoding for full-length human CDK5; made in house; host or cells: Sf21 insect cells (baculovirus co-infection)
How it was run: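 Sf21-coexpressed full-length human CDK5 with GST-p25 (p35 aa 108-307), glutathione-purified, at 2 ng/ml was reacted for 20 min at 37 °C on plate-coated GST-Rb(773-928). Buffer was 20 mM HEPES pH 7.2, 10 µM ATP, 10 mM MgCl2 and 2.5% DMSO. Phospho-Rb Ser-780 was detected by Eu-labelled antibody TRF, and IC50 curves were fitted.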

[2] = target: T2, His6-GSK-3β (Homo sapiens, UniProt P49841); test: Inhibition of His6-GSK-3β kinase activity (ELISA-based format, time-resolved fluorescence readout); type: biochemical; conditions: for pIC50: class symbols, read-out: GSK3β IC50
T2 construct: made in house; host or cells: Sf21 insect cells (baculovirus)
T2 sequence (P49841 2-419): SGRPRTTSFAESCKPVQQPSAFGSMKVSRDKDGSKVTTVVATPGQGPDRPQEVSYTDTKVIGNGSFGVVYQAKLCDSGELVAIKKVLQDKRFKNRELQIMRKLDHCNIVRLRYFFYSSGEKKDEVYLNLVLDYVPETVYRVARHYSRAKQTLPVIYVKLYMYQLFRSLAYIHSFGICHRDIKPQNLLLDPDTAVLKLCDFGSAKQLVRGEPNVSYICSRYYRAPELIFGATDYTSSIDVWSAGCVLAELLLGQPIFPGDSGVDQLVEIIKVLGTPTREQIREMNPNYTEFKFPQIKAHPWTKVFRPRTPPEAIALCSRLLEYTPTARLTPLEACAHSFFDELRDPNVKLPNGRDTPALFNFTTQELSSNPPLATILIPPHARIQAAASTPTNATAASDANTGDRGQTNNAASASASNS
How it was run: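 N-terminal His6-tagged full-length human GSK-3β (aa 2-419) expressed in Sf21 cells, 200 ng/ml, phosphorylating plate-coated GST-Rb with 20 μM ATP in pH 7.2 HEPES buffer, 30 min at 37° C. Phospho-Rb (Ser-780) detected by antibody plus Eu-labelled secondary, time-resolved fluorescence; IC50 from curves.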

T1 sequence (Q00535 whole entry): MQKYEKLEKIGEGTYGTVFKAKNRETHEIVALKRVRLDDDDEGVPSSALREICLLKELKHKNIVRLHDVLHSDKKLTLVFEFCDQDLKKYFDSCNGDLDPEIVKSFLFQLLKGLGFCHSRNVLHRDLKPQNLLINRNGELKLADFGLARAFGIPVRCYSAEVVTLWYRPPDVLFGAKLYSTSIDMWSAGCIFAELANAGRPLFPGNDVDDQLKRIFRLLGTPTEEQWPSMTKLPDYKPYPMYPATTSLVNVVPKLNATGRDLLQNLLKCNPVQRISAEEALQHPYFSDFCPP
T1 sequence (Q15078 108-307 partner limits assumed): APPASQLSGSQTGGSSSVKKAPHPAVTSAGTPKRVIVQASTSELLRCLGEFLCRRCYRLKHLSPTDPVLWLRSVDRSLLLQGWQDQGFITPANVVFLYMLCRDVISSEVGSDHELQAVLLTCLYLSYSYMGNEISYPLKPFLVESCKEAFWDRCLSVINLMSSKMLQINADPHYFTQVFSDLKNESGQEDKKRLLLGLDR

pIC50 ([1]; class symbols)	pIC50 [2]	melting point	pIC50 ([1]; numeric bounds)	GSK3β % @10 μM ([2]; @10 μM) [% @10 μM]	SMILES
< 5.00	< 5.00	> 300 °C	–	–	O=C1Nc2ccc(C(F)(F)F)cc2C1c1ncnc2c1cnn2C1CCCC1 (stereo not drawn) [Example 56, 3-(1-Cyclopentyl-1H-pyrazolo [3,4-d]pyrimidine-4-yl)-5-trifluoromethyl-1,3-dihydro-indol-2-one]
–	< 5.00	287 to 290 °C	< 5.52	–	O=C1Nc2ccc(Br)cc2C1c1ncnc2c1cnn2C1CCCC1 (stereo not drawn) [Example 54, 5-Bromo-3-(1-cyclopentyl-1H-pyrazolo[3,4-d]pyrimidin-4-yl)-1,3-dihydro-indol-2-one]
> 6.52	> 6.52	247 to 251 °C	–	–	CCOCCn1cc2c(C3C(=O)Nc4ccc(Br)cc43)nc(NCCN(C)C)nc2n1 (stereo not drawn) [Example 237, 5-Bromo-3-[6-(2-dimethylamino-ethylamino)-2-(2-ethoxy-ethyl)2H-pyrazolo[3,4-d]pyrimidin-4-yl]-1,3-dihydro-indol-2-one]
> 6.52	5.52 to 6.52	> 380 °C	–	–	N#Cc1cccc2c1NC(=O)C2c1ncnc2nn(C3CCCC3)cc12 (stereo not drawn) [Example 39, 3-(2-Cyclopentyl-2H-pyrazolo[3,4-d]pyrimidin-4-yl)-2-oxo-2,3-dihydro-1H-indole-7-carbonitrile]
> 6.52	> 6.52	283 to 291 °C	–	–	CCCn1cc2c(C3C(=O)Nc4ccc(Br)cc43)nc(NCCc3ccccn3)nc2n1 (stereo not drawn) [Example 191, 5-Bromo-3-[2-propyl-6-(2-pyridin-2-yl-ethylamino)-2H-pyrazolo [3,4-d]pyrimidin-4-yl]-1,3-dihydro-indol-2-one]
< 5.00	< 5.00	> 300 °C	–	–	O=C1Nc2ccc(C(F)(F)F)cc2C1c1ncnc2c1cnn2C1CCCCC1 (stereo not drawn) [Example 71, 3-(1-Cyclohexyl-1H-pyrazolo [3,4-d]pyrimidin-4-yl)-5-trifluoromethyl-1,3-dihydro-indol-2-one]
5.52 to 6.52	5.52 to 6.52	293 to 295 °C	–	–	CCOCCn1cc2c(C3C(=O)Nc4ccc(Cl)cc43)nc(NCCN(C)C)nc2n1 (stereo not drawn) [Example 216, 5-Chloro-3-[6-(2-dimethylamino-ethylamino)-2-(2-ethoxy-ethyl)-2H-pyrazolo[3,4-d]pyrimidin-4-yl]-1,3-dihydro-indol-2-one]
> 6.52	> 6.52	271 to 274 °C	–	–	CC(C)Cn1cc2c(C3C(=O)Nc4ccc(Br)cc43)nc(NCCCN3CCOCC3)nc2n1 (stereo not drawn) [Example 265, 5-Bromo-3-[2-isobutyl-6-(3-morpholin-4-yl-propylamino)-2H-pyrazolo [3,4-d]pyrimidin-4-yl]-1,3-dihydro-indol-2-one]
–	5.52 to 6.52	258 to 260 °C	< 6.00	–	O=C1Nc2ccccc2C1c1nc(NCCc2cccnc2)nc2nn(C3CCCC3)cc12 (stereo not drawn) [Example 155, 3-[2-cyclopentyl-6-(2-pyridin-3-yl-ethylamino)-2H-pyrazolo [3,4-d]pyrimidin-4-yl]-1,3-dihydro-indol-2-one]
–	> 6.52	248.5 to 249 °C	< 5.52	–	COCCN(CCOC)c1nc(C2C(=O)Nc3ccc(C#N)cc32)c2cn(C3CCCC3)nc2n1 (stereo not drawn) [Example 167, 3-{6-[bis-(2-methoxyethyl)amino]-2-cyclopentyl-2H-pyrazolo[3,4-d]pyrimidin-4-yl}-2-oxo-2,3-dihydro-1H-indole-5-carbonitrile]
–	< 5.00	293 to 297 °C	< 5.52	–	CCCn1ncc2c(C3C(=O)Nc4ccc(Cl)cc43)ncnc21 (stereo not drawn) [Example 95, 5-Chloro-3-(1-propyl-2H-pyrazolo[3,4-d]pyrimidin-4-yl)-1,3-dihydro-indol-2-one]
> 6.52	5.52 to 6.52	> 350 °C	–	–	Cn1cc2c(C3C(=O)Nc4ccc(C#N)cc43)ncnc2n1 (stereo not drawn) [Example 84, 3-(2-Methyl-2H-pyrazolo [3,4-d]pyrimidin-4-yl)-2-oxo-2,3-dihydro-1H-indole-5-carbonitrile]
> 6.52	> 6.52	> 300 °C	–	–	CCCn1cc2c(C3C(=O)Nc4ccc(C#N)cc43)ncnc2n1 (stereo not drawn) [Example 96, 3-(2-propyl-1H-pyrazolo[3,4-d]pyrimidin-4-yl)-2-oxo-2,3-dihydro-1H-indole-5-carbonitrile]
< 5.00	> 6.52	299 to 301 °C	–	–	CC(C)Nc1nc(C2C(=O)Nc3ccc(C(F)(F)F)cc32)c2cn(C3CCCC3)nc2n1 (stereo not drawn) [Example 250, 3-(2-Cyclopentyl-6-isopropylamino-2H-pyrazolo[3,4-d]pyrimidin-4-yl)-5-trifluoromethyl-1,3-dihydro-indol-2-one]
5.52 to 6.52	5.52 to 6.52	258 to 263 °C	–	–	O=C1Nc2cc(F)ccc2C1c1ncnc2nn(C3CCCC3)cc12 (stereo not drawn) [Example 41, 3-(2-Cyclopentyl-2H-pyrazolo[3,4-d]pyrimidin-4-yl)-6-fluoro-1,3-dihydro-indol-2-one]
–	5.52 to 6.52	201 to 204 °C	< 5.52	–	CNCCNc1nc(C2C(=O)Nc3ccc(Br)cc32)c2cn(C3CCCC3)nc2n1.Cl (stereo not drawn) [Example 378, 5-Bromo-3-[2-cyclopentyl-6-(2-methylamino-ethylamino)-2H-pyrazolo [3,4-d]pyrimidin-4-yl]-1,3-dihydro-indol-2-one hydrochloride salt]
> 6.52	< 5.00	> 320 °C	–	–	Cn1ncc2c(C3C(=O)Nc4ccc(Cl)cc43)ncnc21 (stereo not drawn) [Example 86, 5-Chloro-3-(1-methyl-1H-pyrazolo[3,4-d]pyrimidin-4-yl)-1,3-dihydro-indol-2-one]
5.52 to 6.52	> 6.52	264 to 265.5 °C	–	–	CC(C)Cn1cc2c(C3C(=O)Nc4ccc(Cl)cc43)nc(NCCN(C)C)nc2n1 (stereo not drawn) [Example 270, 5-Chloro-3-[6-(2-dimethylamino-ethylamino)-2-isobutyl-2H-pyrazolo[3,4-d]pyrimidin-4-yl]-1,3-dihydro-indol-2-one]
> 6.52	> 6.52	319 to 322 °C (dec.)	–	–	O=C1Nc2ccc(Br)cc2C1c1ncnc2nn(C3CCCC3)cc12 (stereo not drawn) [Example 31, 5-Bromo-3-(2-Cyclopentyl-2H-pyrazolo[3,4-d]pyrimidin-4-yl)-2-oxo-1,3-dihydro-indol-2-one]
5.52 to 6.52	5.52 to 6.52	280 to 284 °C	–	–	O=C1Nc2ccc(F)c(F)c2C1c1ncnc2nn(C3CCCC3)cc12 (stereo not drawn) [Example 42, 3-(2-Cyclopentyl-2H-pyrazolo[3,4-d]pyrimidin-4-yl)-4,5-difluoro-1,3-dihydro-indol-2-one]
> 6.52	> 6.52	> 300 °C	–	–	COCCn1cc2c(C3C(=O)Nc4ccc(Br)cc43)nc(NCCN3CCOCC3)nc2n1 (stereo not drawn) [Example 234, 5-Bromo-3-[2-(2-methoxy-ethyl)-6-(2-morpholin-4-yl-ethylamino)-2H-pyrazolo[3,4-d]pyrimidin-4-yl]-1,3-dihydro-indol-2-one]
< 5.00	–	282 to 285 °C	–	52	CC(C)CNc1nc(C2C(=O)Nc3ccc(C(F)(F)F)cc32)c2cn(C3CCCC3)nc2n1 (stereo not drawn) [Example 249, 3-(2-Cyclopentyl-6-isobutylamino-2H-pyrazolo[3,4-d]pyrimidin-4-yl)-5-trifluoromethyl-1,3-dihydro-indol-2-one]
< 5.00	> 6.52	> 300 °C	–	–	O=C1Nc2ccc(C(F)(F)F)cc2C1c1nc(NCCc2ccccn2)nc2nn(C3CCCC3)cc12 (stereo not drawn) [Example 247, 3-[2-Cyclopentyl-6-(2-pyridin-2-yl-ethylamino)-2H-pyrazolo[3,4-d]pyrimidin-4-yl]-5-trifluoromethyl-1,3-dihydro-indol-2-one]
> 6.52	> 6.52	199 °C (dec.)	–	–	CCCCCn1cc2c(C3C(=O)Nc4ccc(C#N)cc43)nc(NC(C)C)nc2n1 (stereo not drawn) [Example 295, 3-(6-Isopropylamino-2-pentyl-2H-pyrazolo[3,4-d]pyrimidin-4-yl)-2-oxo-2,3-dihydro-1H-indole-5-carbonitrile]
> 6.52	> 6.52	216 to 218 °C	–	–	O=C1Nc2ccccc2C1c1nc(NCc2cccnc2)nc2nn(C3CCCC3)cc12 (stereo not drawn) [Example 156, 3-{2-cyclopentyl-6-[(pyridin-3-ylmethyl)-amino]-2H-pyrazolo [3,4-d]pyrimidin-4-yl}-1,3-dihydro-indol-2-one]
–	5.52 to 6.52	242 to 245 °C	< 5.52	–	O=C1Nc2ccccc2C1c1nc(NCCCN2CCOCC2)nc2nn(C3CCCC3)cc12 (stereo not drawn) [Example 157, 3-[2-cyclopentyl-6-(3-morpholin-4-yl-propylamino)-2H-pyrazolo[3,4-d]pyrimidin-4-yl]-1,3-dihydro-indol-2-one]
> 6.52	> 6.52	298 to 300 °C	–	–	CCOCCn1cc2c(C3C(=O)Nc4ccc(Br)cc43)nc(NC[C@@H](C)O)nc2n1 (stereo partly drawn) [Example 239, 5-Bromo-3-[2-(2-ethoxy-ethyl)-6-((R)-2-hydroxy-propylamino)-2H-pyrazolo[3,4-d]pyrimidin-4-yl]-1,3-dihydro-indol-2-one]
